The text below walks through data of patent US5006554A, “Organotin compounds” (The United States of America as represented by the …, priority 1989, dated 1991).

Data set [1] in a line: Degradation on exposure to direct sunlight in quartz tubes (loss of compound after 48 h, GC MS). In kind it is physicochemical. The note with it: for loss of compound: exposure to direct sunlight, quartz tubes, seawater solutions, after 48 h; for stability in seawater relative to tributyltin bromide, presence of light: in words. On the procedure:
Degradation tests of the compounds included making ethanol solutions of the organotin bromides that were prepared at a concentration of approximately 1 mg/cm^3. Aliquots of the ethanol solutions were added to either 3.5% sodium bromide (NaBr) containing 1% acetone or to filtered seawater to obtain approximately 1-5 ppm concentrations in the seawater. […] Aliquots (10 cm^3) of the solutions were extracted at timed intervals with 1 cm^3 hexane after acidification with 0.1 cm^3 concentrated hydrochloric acid (HCl). Samples were analyzed by GC MS.
(§1) Half-lives of 33 days, 17 days and 16 days were estimated for tributyltin bromide, tri-3-butenyltin bromide and tri-1-butenyltin bromide in seawater, protected from UV light and held at a constant room temperature.

The nature of data set [2]: Degradation in seawater protected from UV light at constant room temperature (half-life, GC MS). The data set is classed as physicochemical. The note with it: for stability in seawater relative to tributyltin bromide, absence of light: in words; for Half-life: protected from UV light, constant room temperature, estimated. On the procedure:
Degradation tests of the compounds included making ethanol solutions of the organotin bromides that were prepared at a concentration of approximately 1 mg/cm^3. Aliquots of the ethanol solutions were added to either 3.5% sodium bromide (NaBr) containing 1% acetone or to filtered seawater to obtain approximately 1-5 ppm concentrations in the seawater. The sodium bromide (NaBr) solution was placed in 125 cm^3 quartz tubes and exposed to sunlight over 48 h. The seawater solutions were kept in closed 500 cm^3 polycarbonate jars in the laboratory. Aliquots (10 cm^3) of the solutions were extracted at timed intervals with 1 cm^3 hexane after acidification with 0.1 cm^3 concentrated hydrochloric acid (HCl). Samples were analyzed by GC MS.
as §1

Data set [3] concerns Photobacterium phosphoreum NRRL B-11177. The data set is described as follows: Microtox toxicity bioassay: reduction in light output by a luminescent bacterium. The data set is classed as cell-based. The following applies: relative to tributyltin bromide, from EC50. On the procedure: Relative toxicity of compounds was determined using a Microtox Toxicity Analyzer Model 2055, manufactured by Microbics Corporation, Carlsbad, Calif., USA. This bioassay measures the relative reduction in light output by a luminescent bacterium, Photobacterium phosphoreum NRRL B-11177, when exposed to a toxicant. The bacteria are provided in a convenient freeze-dried form by Microbics Corporation and are immediately activated by the addition of 1 cm^3 of distilled water.
For Microtox testing, stock solutions of the compounds were prepared in 95% ethanol at approximately 1-2 mg/cm^3 Appropriate amounts of the ethanol solutions were added to 2% aqueous sodium chloride (NaCl) to achieve a workable concentration while keeping the ethanol concentration as low as possible. Typically, the ethanol concentration was about 0.05%.
Serial dilutions of each compound for measurement were performed in the Microtox photometer/incubator at 15° C. Controls consist of triplicate 1 cm^3 portions of 2% sodium chloride and candidate toxics were prepared in and subsequently serially diluted in 2% sodium chloride, with a final volume of 1 cm^3 for each dilution. After a 5-minute period for temperature equilibration, 10 μl of rehydrated bacteria was added to each of the controls and the serial dilutions of the test compound. […]

Data set [4] can be described thus: Stability and chemical reactivity of the butenyltin compounds (neat, in solvents, in reaction mixture). The following applies: for stability / reactivity in the synthesis mixture: crude reaction mixture, synthesis side-products; for stability as neat compound and in inert solvents: inert solvents (also ethanol). In kind it is physicochemical. An excerpt: Synthesis of the tetrabutenyltins presented no great difficulty as long as the Grignard reagent was present in large excess to assure complete alkylation. […] Under these conditions alkenyltin compounds were identified containing various numbers of […] groups in the mixture.
The other two tributenyltin bromides were stable as neat compounds, in inert solvents and in ethanol for a reasonable length of time. Chemical reactivity appeared to follow the order allyl > vinyl > alkyl.

As to `CCC=[CH][Sn]([Br])([CH]=CCC)[CH]=CCC` [tri-1-butenyltin bromide], in data set [1], the loss of compound entry is reported as “about 80%” and the “stability in seawater relative to tributyltin bromide, presence of light” value is reported as “less stable in seawater”. Further, in data set [2], the “stability in seawater relative to tributyltin bromide, absence of light” value is reported as “less stable in seawater” and the Half-life is 16 days. In addition, the “factor by which less toxic than tributyltin bromide” value in data set [3] is reported as “about three”. Also, in data set [4], the “stability / reactivity in the synthesis mixture” value (shortened to “stability / reactivity”) is recorded as “tended spontaneously to form black precipitates during solvent evaporation of the crude mixture”; the “stability as neat compound and in inert solvents” value is “stable as neat compounds and in inert solvents”.
In the case of `CC=C[CH2][Sn]([Br])([CH2]C=CC)[CH2]C=CC` [tri-2-butenyltin bromide], the “stability / reactivity” value in data set [4] (listed as Tri-2-butenyltin bromide) was “so reactive with the synthesis side-products that it could not be isolated”; in data set [4] (listed as tri-2butenyltin bromide) it was “highly reactive and therefore transient”. Besides, the “stability sufficient for degradation and toxicity determinations” value in data set [4] (in words) was “too reactive for other than structural studies”.
Consider `C=CC[CH2][Sn]([Br])([CH2]CC=C)[CH2]CC=C` [tri-3-butenyltin bromide], for which, in data set [1], the loss of compound is ~100% and the “stability in seawater relative to tributyltin bromide, presence of light” value was “less stable in seawater”. Also, in data set [2], the “stability in seawater relative to tributyltin bromide, absence of light” value is “less stable in seawater” and the Half-life is 17 days. The “factor by which less toxic than tributyltin bromide” value in data set [3] is “six”. Also, the “order of chemical reactivity” value in data set [4] (allyl > vinyl > alkyl) was “fell between tri-1-butenyltin bromide, containing vinylic carbons, and tributyltin bromide, the alkyl compound”. Also, in data set [4], the “stability / reactivity” value was “tended spontaneously to form black precipitates during solvent evaporation of the crude mixture”; the “stability as neat compound and in inert solvents” value is “stable as neat compounds and in inert solvents”.
Turning to `CCC[CH2][Sn]([Br])([CH2]CCC)[CH2]CCC` [tributyltin bromide, reference compound], in data set [1], the loss of compound entry is on record as “about 15%”. Also, the Half-life in data set [2] was 33 days.
